Where a name gives a salt, the structure may show the parent alone. Read-outs that look alike come from different tables or passages of the source.
Experiments:
[1] = target: T1, SARS-CoV-2 PLpro (nsp3 1564–1878) (Severe acute respiratory syndrome coronavirus 2, UniProt P0DTD1); assay: biochemical; design: FRET-quenched peptide (Pro3) cleavage by PLpro, 10 min pre-incubation, slope over 20 min, normalised to no-compound control; conditions: high concentration screen, read-out: % of control remaining
[2] = target: T1, SARS-CoV-2 PLpro (nsp3 1564–1878); assay: biochemical; design: FRET-quenched peptide (Pro3) cleavage by PLpro, 10 min pre-incubation, slope over 20 min, normalised to no-compound control; conditions: low concentration screen, read-out: % of control remaining

CC(CC(=O)O)C(=O)O (stereo not drawn) [2-Methylsuccinic acid]
remaining activity at 3.75 µM ([1]; Well no.=6635): 98.3% | remaining activity at 1.25 µM ([2]; Well no.=6635): 100%

O=C(O)/C=C/C(O)c1ccc(Cl)cc1 (stereo not drawn) [NCS-356]
remaining activity at 3.75 µM ([1]; Well no.=807): 101% | remaining activity at 1.25 µM ([2]; Well no.=807): 102%

O=C(O)C1CCCCN1 (stereo not drawn) [Pipecolic acid]
remaining activity at 3.75 µM ([1]; Well no.=6929): 102% | remaining activity at 1.25 µM ([2]; Well no.=6929): 103%

CC(ONC(=O)c1cc(C(F)(F)F)cc(C(F)(F)F)c1)C(=O)Nc1ccc(Cl)cc1 (stereo not drawn) [N-[2-(4-chloroanilino)-1-methyl-2-oxoethoxy]-3,5-bis(trifluoromethyl)benzamide]
remaining activity at 3.75 µM ([1]; Well no.=5698): 103% | remaining activity at 1.25 µM ([2]; Well no.=5698): 101%

CC(C)[N+](C)(CCOC(=O)C1c2ccccc2Oc2ccccc21)C(C)C [Propantheline bromide]
remaining activity at 3.75 µM ([1]; Well no.=1401): 102% | remaining activity at 1.25 µM ([2]; Well no.=1401): 102%

Cc1cc(Nc2ncc3cc(-c4c(Cl)cccc4Cl)c(=O)n(C)c3n2)ccc1F [PD-180970]
remaining activity at 3.75 µM ([1]; Well no.=5604): 96.4% | remaining activity at 1.25 µM ([2]; Well no.=5604): 100%

Nc1nc(-n2cccn2)nc(-n2cccn2)c1Br [Taminadenant]
remaining activity at 3.75 µM ([1]; Well no.=8565): 90.5% | remaining activity at 1.25 µM ([2]; Well no.=8565): 99.5%

O=[N+]([O-])c1cccc2c(Br)[nH]nc12 [3-Bromo-7-nitroindazole]
remaining activity at 3.75 µM ([1]; Well no.=27): 96.1% | remaining activity at 1.25 µM ([2]; Well no.=27): 98.5%

CN1CCN(C2=Nc3cc(F)ccc3Cc3ccccc32)CC1 [Fluperlapine]
remaining activity at 3.75 µM ([1]; Well no.=2100): 98.8% | remaining activity at 1.25 µM ([2]; Well no.=2100): 101%

N#CC(C#N)=Cc1ccc([N+](=O)[O-])c(O)c1 [Tyrphostin AG 126]
remaining activity at 3.75 µM ([1]; Well no.=1518): 95.4% | remaining activity at 1.25 µM ([2]; Well no.=1518): 100%

NC1(C(=O)O)CCCCC1 [1-Amino-1-cyclohexanecarboxylic acid hydrochloride]
remaining activity at 3.75 µM ([1]; Well no.=160): 102% | remaining activity at 1.25 µM ([2]; Well no.=160): 100%

NC(=O)c1ccc2[nH]ccc2c1 [p38 MAP Kinase Inhibitor VII, SD-169]
remaining activity at 3.75 µM ([1]; Well no.=2531): 94.8% | remaining activity at 1.25 µM ([2]; Well no.=2531): 99.1%

OC[C@@H](O)[C@@H](O)[C@@H](O)CO [Ribitol]
remaining activity at 3.75 µM ([1]; Well no.=6775): 102% | remaining activity at 1.25 µM ([2]; Well no.=6775): 104%

COC(=O)[C@H]1[C@H]2C[C@@H]3c4[nH]c5cc(OC)ccc5c4CCN3C[C@H]2C[C@@H](OC(=O)c2cc(OC)c(OC)c(OC)c2)[C@@H]1OC [Reserpine]
remaining activity at 3.75 µM ([1]; Well no.=3833): 94.7% | remaining activity at 1.25 µM ([2]; Well no.=3833): 97%

Cc1cn([C@@H]2O[C@H](CO)[C@@H](N=[N+]=[N-])[C@H]2O)c(=O)nc1N [3'-Azido-3'-deoxy-5-methylcytidine]
remaining activity at 3.75 µM ([1]; Well no.=7804): 97.5% | remaining activity at 1.25 µM ([2]; Well no.=7804): 98.2%

O=C1CCCC(=O)C1C(=O)c1ccc(C(F)(F)F)cc1[N+](=O)[O-] [Nitisinone]
remaining activity at 3.75 µM ([1]; Well no.=5887): 103% | remaining activity at 1.25 µM ([2]; Well no.=5887): 103%

C[C@H](NC(=O)/C(C#N)=C/c1cccc(Br)n1)c1ccccc1 [WP1066]
remaining activity at 3.75 µM ([1]; Well no.=4779): 99% | remaining activity at 1.25 µM ([2]; Well no.=4779): 103%

CN(C)C(=O)Oc1cc(OC(=O)N(C)C)cc(C(O)CNC(C)(C)C)c1 (stereo not drawn) [Bambuterol]
remaining activity at 3.75 µM ([1]; Well no.=1770): 92.8% | remaining activity at 1.25 µM ([2]; Well no.=1770): 92.4%

COc1ccc(OC)c([C@@H](O)[C@H](C)N)c1 [Methoxamine hydrochloride]
remaining activity at 3.75 µM ([1]; Well no.=980): 101% | remaining activity at 1.25 µM ([2]; Well no.=980): 100%

COc1cc2c3c(c1OC)-c1ccccc1C[C@H]3N(C)CC2 [Nuciferine]
remaining activity at 3.75 µM ([1]; Well no.=8335): 89% | remaining activity at 1.25 µM ([2]; Well no.=8335): 95.2%

CN1C(C)(C)CCCC1(C)C [Pempidine tartrate]
remaining activity at 3.75 µM ([1]; Well no.=1052): 95% | remaining activity at 1.25 µM ([2]; Well no.=1052): 94%

c1ccc2c3c([nH]c2c1)[C@H]1[C@@H]2CC[C@@H]([C@@H]4CCCN[C@@H]42)N1CC3
remaining activity at 3.75 µM ([1]; Well no.=3163): 103% | remaining activity at 1.25 µM ([2]; Well no.=3163): 105%

NCCC(=O)NCCc1c[nH]cn1 [Carcinine dihydrochloride]
remaining activity at 3.75 µM ([1]; Well no.=237): 97.8% | remaining activity at 1.25 µM ([2]; Well no.=237): 95.2%

O=c1c(O)c(-c2ccc(O)c(O)c2)oc2cc(O)c(O)c(O)c12 [Quercetagetin]
remaining activity at 3.75 µM ([1]; Well no.=2589): 92.1% | remaining activity at 1.25 µM ([2]; Well no.=2589): 89%

From paper PMC8286840, “Identifying SARS-CoV-2 antiviral compounds by screening for small molecule inhibitors of Nsp3 papain-like protease” (Biochemical Journal, 2021)
